From patent USRE46630E1, “Substituted 4-pyridones and their use as inhibitors of neutrophil elastase activity” (Boehringer Ingelheim International GmbH, priority 2012, dated 2017)

biological target: T1, Human neutrophil elastase (Homo sapiens, UniProt P08246); assay: Human Neutrophil Elastase Assay; assay type: biochemical; conditions: Neutrophil Elastase assay; substrate MeOSuc-Ala-Ala-Pro-Val-AMC 250 μM; 15 min preincubation, 60 min incubation at room temperature; pH 7.5
T1 construct: purchased Calbiochem 324681
T1 sequence (P08246 30-267): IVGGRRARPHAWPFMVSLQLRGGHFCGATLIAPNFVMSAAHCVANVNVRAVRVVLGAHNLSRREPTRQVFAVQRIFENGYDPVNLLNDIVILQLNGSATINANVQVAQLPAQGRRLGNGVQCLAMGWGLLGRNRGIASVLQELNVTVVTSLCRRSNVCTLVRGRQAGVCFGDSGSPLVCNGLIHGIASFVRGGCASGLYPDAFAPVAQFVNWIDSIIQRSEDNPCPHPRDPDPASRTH
Procedure: Human Neutrophil Elastase Assay
All other materials were of the highest grade commercially available.
The following buffers were used: Compound buffer: 100 mM Tris, 500 mM NaCl, adjusted to pH 7.5; Assay buffer: 100 mM Tris, 500 mM NaCl, adjusted to pH 7.5, containing 0.01% BSA.
Assay conditions: Test compounds were prediluted in DMSO and subsequently in compound buffer (5% DMSO final). […] After inactivation of the enzyme, fluorescence intensities were measured at 380 nm excitation and 460 nm emission wavelengths.
Each plate contains wells with a high value control (DMSO+enzyme+substrate) and wells with a low value control (DMSO+inactivated enzyme+substrate). […] Means of low values were taken as 0%, means of high values as 100%.

IC50 [nM]	Compound
4.1	Cc1c(-c2cccc(C(F)(F)F)c2)c(=O)c(C(=O)NCc2ccccn2)cn1Cc1ccc(C#N)cc1 [Example 1.48]
11	CCNC(=O)c1cn(C(C)c2ccc(C#N)cc2)c(C)c(-c2ccnc(C(F)F)c2)c1=O (stereo not shown) [Example 38, 1-[1-(4-Cyano-phenyl)-ethyl]-2′-difluoromethyl-2-methyl-4-oxo-1,4-dihydro-[3,4′]bipyridinyl-5-carboxylic acid ethylamide]
22.2	CCNC(=O)c1cn(C(C)c2ccc(C#N)cn2)c(C)c(-c2ccnc(C(F)(F)F)c2)c1=O (stereo not shown) [Example 19, 1-[1-(5-Cyano-pyridin-2-yl)-ethyl]-2-methyl-4-oxo-2′-trifluoromethyl-1,4-dihydro-[3,4′]bipyridinyl-5-carboxylic acid ethylamide]
21.6	Cc1c(-c2cccc(C(F)F)c2)c(=O)c(C(N)=O)cn1C(C)c1ccc(C#N)cc1 (stereo not shown) [Example 8.22]
27.6	Cc1c(-c2cccc(C(F)(F)F)c2)c(=O)c(C(=O)NCCCN(C)C)cn1Cc1ccc(C#N)cc1 [Example 1.4]
2.8	Cc1c(-c2ccnc(C(F)(F)F)c2)c(=O)c(C(=O)NCc2ccc(S(C)(=O)=O)cc2)cn1Cc1ccc(C#N)cn1 [Example 5.1]
7.5	Cc1c(-c2ccnc(C(F)(F)F)c2)c(=O)c(C(=O)NCC(N)=O)cn1C(C)c1ccc(C#N)cc1 (stereo not shown) [Example 9.18]
47.1	Cc1c(-c2cccc(C(F)(F)F)c2)c(=O)c(C(=O)N[C@H]2CCC(=O)N(C)C2)cn1Cc1ccc(C#N)cc1 [Example 1.36]
63.5	Cc1c(-c2cccc(C(F)(F)F)c2)c(=O)c(C(=O)NCC(C)(C)O)cn1C(C)c1ccc(C#N)cn1 (stereo not shown) [Example 47.11]
12.1	Cc1c(-c2cccc(C(F)(F)F)c2)c(=O)c(C(=O)NC2CNC(=O)C2)cn1Cc1ccc(C#N)cc1 (stereo not shown) [Example 1.12]
14.4	CNC(=O)c1cn(Cc2ccc(C#N)cc2)c(C)c(-c2cccc(C(F)(F)F)c2)c1=O [Example 1.11]
7.3	Cc1c(-c2cccc(C(F)(F)F)c2)c(=O)c(C(=O)NC2CCNC2=O)cn1C(C)c1ccc(C#N)cn1 (stereo not shown) [Example 47.2]
10.3	Cc1c(-c2cccc(C(F)(F)F)c2)c(=O)c(C(=O)NCC(C)(C)O)cn1C(C)c1ccc(C#N)cc1 (stereo not shown) [Example 7.15]
1.4	Cc1c(-c2cccc(C(F)(F)F)c2)c(=O)c(C(=O)NCc2ccc(S(C)(=O)=O)cn2)cn1Cc1ccc(C#N)nc1 [Example 4.8]
6.7	Cc1c(-c2ccnc(C(F)(F)F)c2)c(=O)c(C(=O)NCc2ccnn2C)cn1C(C)c1ccc(C#N)cc1 (stereo not shown) [Example 9.16]
5.3	Cc1c(-c2ccnc(C(F)(F)F)c2)c(=O)c(C(=O)NC2(C#N)CC2)cn1C(C)c1ccc(C#N)cc1 (stereo not shown) [Example 9.45]
100	Cc1c(-c2ccnc(C(F)(F)F)c2)c(=O)c(C(=O)NC2CCCC2O)cn1C(C)c1ccc(C#N)cc1 (stereo not shown) [Example 9.41]
3.1	Cc1c(-c2cccc(C(F)F)c2)c(=O)c(C(=O)NCc2ccno2)cn1C(C)c1ccc(C#N)cc1 (stereo not shown) [Example 8.17]
15.2	Cc1c(-c2cccc(C(F)(F)F)c2)c(=O)c(C(=O)NCCO)cn1Cc1ccc(C#N)cc1 [Example 1.1, 1-(4-Cyano-benzyl)-6-methyl-4-oxo-5-(3-trifluoromethyl-phenyl)-1,4-dihydro-pyridine-3-carboxylic acid (2-hydroxy-ethyl)-amide]
6.1	CCNC(=O)c1cn(C(C)c2ccc(C#N)cc2)c(C)c(-c2ccnc(C(F)(F)F)c2)c1=O (stereo not shown) [Example 9.56]
4	Cc1c(-c2cccc(C(F)(F)F)c2)c(=O)c(C(=O)NCC(C)O)cn1C(C)c1ccc(C#N)cc1 (stereo not shown) [Example 7.13]
2.1	Cc1c(-c2cccc(C(F)(F)F)c2)c(=O)c(C(=O)NCc2cccc(=O)[nH]2)cn1Cc1ccc(C#N)cc1 [Example 1.40]
4.4	Cc1c(-c2cccc(C(F)(F)F)c2)c(=O)c(C(=O)NCCCO)cn1Cc1ccc(C#N)cc1S(C)(=O)=O [Example 23]
12.1	Cc1c(-c2ccnc(C(F)(F)F)c2)c(=O)c(C(=O)NCC2CCCO2)cn1C(C)c1ccc(C#N)cc1 (stereo not shown) [Example 9.26]
< 1	Cc1c(-c2cccc(C(F)(F)F)c2)c(=O)c(C(=O)NCc2ccc(S(C)(=O)=O)cc2)cn1Cc1ccc(C#N)cc1F [Example 2.8]
< 1	Cc1c(-c2cccc(C(F)F)c2)c(=O)c(C(=O)NCc2ccc(S(C)(=O)=O)cc2)cn1Cc1ccc(C#N)cn1 [Example 40, 1-(5-Cyano-pyridin-2-ylmethyl)-5-(3-difluoromethyl-phenyl)-6-methyl-4-oxo-1,4-dihydro-pyridine-3-carboxylic acid 4-methanesulfonyl-benzylamide]

IC50 [nM]	Compound
3.2	Cc1c(-c2ccnc(C(F)(F)F)c2)c(=O)c(C(=O)NCCCS(C)(=O)=O)cn1C(C)c1ccc(C#N)cc1 (stereo not shown) [Example 9.6]
19.2	Cc1c(-c2cccc(C(F)(F)F)c2)c(=O)c(C(=O)NC2CCOCC2)cn1C(C)c1ccc(C#N)cn1 (stereo not shown) [Example 47.10]
< 1	Cc1c(-c2cccc(Cl)c2)c(=O)c(C(=O)NCc2ccc(S(C)(=O)=O)cc2)cn1Cc1ccc(C#N)cc1 [Example 6.8]
4.6	Cc1c(-c2cccc(C(F)(F)F)c2)c(=O)c(C(=O)NCc2ccc(S(C)(=O)=O)cc2)cn1C1(c2ccc(C#N)cc2)CC1 [Example 45, 1-[1-(4-Cyano-phenyl)-cyclopropyl]-6-methyl-4-oxo-5-(3-trifluoromethyl-phenyl)-1,4-dihydro-pyridine-3-carboxylic acid 4-methanesulfonyl-benzylamide]
23	Cc1c(-c2cccc(C(F)(F)F)c2)c(=O)c(C(=O)NCc2cncn2C)cn1Cc1ccc(C#N)cc1 [Example 1.32]
2.3	Cc1c(-c2cccc(C(F)(F)F)c2)c(=O)c(C(=O)NCC#N)cn1Cc1ccc(C#N)cc1 [Example 46, 1-(4-Cyano-benzyl)-6-methyl-4-oxo-5-(3-trifluoromethyl-phenyl)-1,4-dihydro-pyridine-3-carboxylic acid cyanomethyl-amide]
< 1	Cc1c(-c2cccc(C(F)(F)F)c2)c(=O)c(C(=O)NCc2ccc(S(C)(=O)=O)cn2)cn1Cc1ccc(C#N)cc1F [Example 4.9]
7	Cc1nnc(CNC(=O)c2cn(C(C)c3ccc(C#N)cc3)c(C)c(-c3ccnc(C(F)(F)F)c3)c2=O)o1 (stereo not shown) [Example 9.7]
18.5	Cc1c(-c2cccc(C(F)(F)F)c2)c(=O)c(C(N)=O)cn1C(C)c1ccc(C#N)cc1 (stereo not shown) [Example 7.17]
6	C=CCNC(=O)c1cn(C(C)c2ccc(C#N)cc2)c(C)c(-c2ccnc(C(F)(F)F)c2)c1=O (stereo not shown) [Example 9.51]
51	CNC(=O)c1cn(Cc2ccc(F)cc2)c(C)c(-c2cccc(C(F)(F)F)c2)c1=O [Example 3.3]
1.7	Cc1c(-c2cccc(C(F)F)c2)c(=O)c(C(=O)NCc2ccccn2)cn1C(C)c1ccc(C#N)cc1 (stereo not shown) [Example 8.19]
1.4	Cc1c(-c2cccc(C(F)(F)F)c2)c(=O)c(C(=O)NCc2ccc(S(C)(=O)=O)cc2)cn1Cc1ccc(C#N)nc1 [Example 2.4]
19.3	CNC(=O)c1cn(Cc2ccc(C#N)c(F)c2)c(C)c(-c2cccc(C(F)(F)F)c2)c1=O [Example 3.5]
2.3	Cc1c(-c2cccc(C(F)(F)F)c2)c(=O)c(C(=O)NCCO)cn1C(C)c1ccc(C#N)cc1 (stereo not shown) [Example 7.9]
41.5	Cc1c(-c2cccc(C(F)(F)F)c2)c(=O)c(C(=O)NCC(=O)N2CCCC2)cn1Cc1ccc(C#N)cc1 [Example 1.54]
44.5	Cc1c(-c2ccccc2)c(=O)c(C(=O)NCc2ccc(S(C)(=O)=O)cc2)cn1Cc1ccc(C#N)cc1 [Example 6.1, 1-(4-Cyano-benzyl)-6-methyl-4-oxo-5-phenyl-1,4-dihydro-pyridine-3-carboxylic acid 4-methanesulfonyl-benzylamide]
6.5	Cc1noc(CNC(=O)c2cn(Cc3ccc(C#N)cc3)c(C)c(-c3cccc(C(F)(F)F)c3)c2=O)n1 [Example 1.67]
9.8	Cc1c(-c2ccnc(C(F)(F)F)c2)c(=O)c(C(=O)NCC2CC3CCC2O3)cn1C(C)c1ccc(C#N)cc1 (stereo not shown) [Example 9.24]
5.3	CNC(=O)c1cn(C(C)c2ccc(C#N)cc2)c(C)c(-c2ccc(F)c(C(F)(F)F)c2)c1=O (stereo not shown) [Example 30]
4.8	Cc1noc(CNC(=O)c2cn(Cc3ccc(C#N)cc3S(C)(=O)=O)c(C)c(-c3cccc(C(F)(F)F)c3)c2=O)n1 [Example 24]
3.8	Cc1c(-c2cncc(Cl)c2)c(=O)c(C(=O)NCc2ccc(S(C)(=O)=O)cc2)cn1Cc1ccc(C#N)cc1 [Example 6.9]
13.2	Cc1c(-c2cccc(C(F)(F)F)c2)c(=O)c(C(=O)NCc2cnn(C)c2)cn1Cc1ccc(C#N)cc1 [Example 1.26]
55.3	Cc1c(-c2cccc(C(F)(F)F)c2)c(=O)c(C(=O)NCc2ccc(S(C)(=O)=O)cc2)cn1Cc1ccccc1 [Example 2.1, 1-Benzyl-6-methyl-4-oxo-5-(3-trifluoromethyl-phenyl)-1,4-dihydro-pyridine-3-carboxylic acid 4-methanesulfonyl-benzylamide]
1.7	Cc1c(-c2ccnc(C(F)(F)F)c2)c(=O)c(C(=O)NCC#N)cn1C(C)c1ccc(C#N)cc1 (stereo not shown) [Example 9.13]
9.6	Cc1c(-c2cccc(F)c2)c(=O)c(C(=O)NCc2ccc(S(C)(=O)=O)cc2)cn1Cc1ccc(C#N)cc1 [Example 6.5]
